Patent US20180362456A1, “NEW COMPOUNDS WITH ANTIOXIDANT AND ANTIAGING ACTIVITY” (EMS S/A, priority 2015, published 2018)

Key:
free radicals [1] = test: Antioxidant activity, DCA fluorimetric probe, UVA treatments; assay type: cell-based
Description: (§1) The antioxidant power of compounds described in examples 1 and 2 was tested in two different tests, one for the scavenger activity and one for the antioxidant activity. The method is based on the fluorimetric probe 2′,7′-dichlorofluorescein diacetate (DCA) that becomes fluorescent only when it is oxidized by free radicals.

Balb3T3 [2] = test: Lactate dehydrogenase (LDH) release, cell membrane permeability; assay type: cell-based; set-up: activity on cell membrane: dose or concentration left out as unconfirmed; conditions: for LDH release, % of total enzyme contained in the cells: 14 hours exposition
Description: (§2) The citotoxicity of compounds described in examples 1 and 2 was tested with the test Neutral Red Uptake to determine the IC50 values. To better define the cytotoxic potential also the lactate dehydrogenase (LDH) release was tested to verify the action on cell membrane permeability. Test were performed according to DB-ALM Protocol n L39Balb3T3 Red Uptake cytotoxicity and ISO 10993-5:2009.

free radicals [3] = test: Scavenger activity, DCA fluorimetric probe, UVA treatments; assay type: cell-based
Description: as §1

Balb3T3 [4] = test: Neutral Red Uptake cytotoxicity test; assay type: cell-based
Description: as §2

[5] = Neutral Red Uptake cytotoxicity test; assay type: cell-based; conditions: mouse, Balb3T3 cells
Description: as §2

[6] = In vitro skin permeation, static Franz diffusion cells (OECD 428); assay type: in vitro ADME; conditions: 1% solution, 5 mg/cm2 on human skin, 24 hours, unocclusive
Description: The in vitro skin permeation experiments were developed and validated according to the Organization for Economic Cooperation and Development adopted guideline 428 (OECD guideline for the testing of chemicals. Skin absorption: in vitro method. Guideline 428 (Paris, April 2004, updated January 2011)). Briefly, static Franz diffusion cells were set up with human skin samples according with OECD and SCSS guidelines. A simple formulation containing 1% of compound of example 1 in solution was applied topically on human skin samples (5 mg/cm2) for 24 hours in an unocclusive conditions. At the end of the exposure time the Franz diffusion cells were dismantled and the distribution of the compound was measured on the skin surface, in the stratum corneum and in the rector fluid. An extraction method was developed and the day after the extraction process, all the samples were filtered through 0.22 μm membrane filter into HPLC vials. The samples of compounds of example 1, together with known concentration standards were assayed by HPLC-UV (Waters, USA). The average amount measured in the dermis was 2% of applied dose and in the receptor fluid was 3% of the applied dose. Therefore, the calculated average dermal absorption for compound 1 was 5%.

Compound	inhibition at 25 µM (free radicals [1]; 0.025 mM, read-out: inhibition of free radical formation (antioxidant activity)) [%]	activity on cell membrane (Balb3T3 [2])	LDH release, % of total enzyme contained in the cells (Balb3T3 [2]; 1 mM) [%]	reduction of free radical formation (scavenger action) (free radicals [3]; after first UVA treatment) [%]	overall biocompatibility (Balb3T3 [4])	IC50 [5] [µM]	inhibition of free radical formation (antioxidant efficacy) (free radicals [1]; 0.1 mM effective dose, after 5 treatments UVA)	average amount measured in the dermis [6]	average amount measured in the receptor fluid [6]	calculated average dermal absorption [6] [%]	LDH release, % of total enzyme contained in the cells (Balb3T3 [2]; 0.2 mM) [%]	LDH release, % of total enzyme contained in the cells (Balb3T3 [2]; 0.5 mM) [%]	reduction of the formation of free radicals (scavenger activity), on average (free radicals [3]; 0.004 mM, after 5 treatments with UVA) [%]
C=CCSCC(NC(=O)C1CCC(=O)N1)C(=O)OC [Example 2, L-Pyroglutamyl-(R)-3-Allylsulfanyl-2-amino-propionic Acid Methyl Ester]	25.6	some slight activity on cell membrane	12.3	23.5	very biocompatible	> 3000							
C=CCSCC(N)C(=O)Oc1ccc(/C=C/c2cc(OC(=O)C(N)CSCC=C)cc(OC(=O)C(N)CSCC=C)c2)cc1.Cl.Cl.Cl (stereo not drawn) [Example 1, (E)-1,1′-((5-(4-((3-(allylthio)-2-ammoniopropanoyl)oxy)styryl)-1,3-phenylene)bis(oxy))bis(3-(allylthio)-1-oxopropan-2-aminium) Chloride]		not highlighted a specific activity on cell membrane				113	more than 50%	2 % of applied dose	3 % of the applied dose	5	13.0	13.2	41
